According to patent US5004758A, “Water soluble camptothecin analogs useful for inhibiting the growth of animal tumor cells” (priority 1988, dated 1991):
Counter-ions that a name gives are not always drawn. Like-named read-outs stand apart in the source and are kept apart here.

Columns and labels:
sc M5076 sarcoma = experiment: sc-implanted M5076 sarcoma in mice; format: in vivo, mouse; details: for Mice without Palpable Tumors: B/ip
From the text: (§1) The inoculum varies with the tumor.

Aqueous solubility = format: physicochemical
[1] = tested on: sc B16 melanoma/F10 subline; experiment: sc-implanted B16 melanoma/F10 subline in mice; format: in vivo, mouse
From the text: as §1

[2] = tested on: IEC-6 (rat intestinal epithelium); experiment: Cytotoxicity to normal rodent cells in culture; format: cell-based
Procedure: (§2) The cell lines are used and maintained as monolayer cultures in Minimal Essential Media (Grand Island Biological Co., Grand Island, N.Y.) supplemented with 10% fetal calf serum in a 5% CO2 humidified incubator at 37° C. Various concentrations of a Formula (I) compound under sterile conditions were allowed to react for 2 hours followed by aspiration of medium or were exposed continuously. Plates are incubated for 7 days at 37° C. in a CO2 incubator. Medium was aspirated and cells were fixed and stained with ethanol and Geisma stain. The surviving cell population was determined by scanning the plates with an image analyzer. The percent inhibition of proliferation was determined relative to cells incubated in the absence of drug and the 50 percent inhibitory concentration (IC50) was determined by interpolation.

[3] = tested on: NRK52E (rat kidney epithelium); experiment: Cytotoxicity to normal rodent cells in culture; format: cell-based; details: NRK-52E
Procedure: as §2

iv Lewis lung carcinoma = experiment: iv-implanted Lewis lung carcinoma in mice; format: in vivo, mouse; details: for Increase in lifespan (ILS) / Long-Term Survivors: iv Lewis lung; for Increase in lifespan (ILS): B/ip (Days 1, 5, 9 and 13); for Long-Term Survivors: B/ip
From the text: (§3) Tumors used in these studies P388 leukemia, L1210 leukemia and Lewis lung carcinoma--are maintained by serial transplantation in syngeneic strains of mice, DBA/2 for the leukemias and C57B1/6 for Lewis lung carcinoma. The leukemias are serially transplanted i.p. as ascites cell suspensions while the Lewis lung carcinoma is serially transplanted as a s.c. solid tumor.
(§4) For therapeutic trials, tumors were aseptically removed from donor mice and prepared as suspensions for implantation into test animals which for each tumor are syngeneic female F1 hybrid B6D2F1 mice (C57B1/6×DBA/2). The inoculum level varies with the type of tumor: P388 leukemia is inoculated at 10^6 cells per mouse, L1210 leukemia at 10^5 or 10^6 cells per mouse, and Lewis lung carcinoma at 0.25 ml of a 10 percent (w:v) brei. […] After tumor inoculation, mice are randomized to treatment groups of 6 to 8 mice each. In each experiment, there are three groups of untreated control mice.
(§5) Drugs are dissolved or suspended in appropriate aqueous vehicles and given i.p. or i.v. on various treatment schedules over a range of dosage levels. Animals are housed in shoebox cages and monitored daily for mortality for 30 (L1210), 45 (P388) or 60 (Lewis lung) days.

[4] = tested on: sc Madison lung carcinoma; experiment: sc-implanted Madison lung carcinoma in mice; format: in vivo, mouse
From the text: as §1

ip B16 melanoma = details: mouse, in vivo
From the text: (§6) Tumors used in these studies--P388 leukemia and its doxorbicin--and mitoxanrone-resistant sublines, L1210 leukemia, B16 melanoma, B16 melanoma/F10 subline, M5076 sarcoma and colon carcinoma 26--are maintained by serial transplantation in syngeneic strains of mice. For the leukemias, these tumors are maintained in DBA/2 mice. The M5076 sarcoma, the B16 melanoma and its F10 subline are maintained in C57B1/6 mice and the colon sarcinoma 26 is maintained in BALB/c mice. The leukemias and the M5076 sarcoma are serially transplanted i.p. as ascites cell suspensions while the B16 melanoma lines and the colon carcinoma 26 are serially transplanted as s.c. solid tumors.
(§7) For therapeutic trials, tumors are aseptically removed from donor mice and prepared as suspensions for implantation ip into test animals. The test animals for the colon carcinoma 26 are female BALB/c mice (20-25 gm). The test animals for the other tumor models are syngeneic female F1 hybrid B6D2F1 mice (C57B1/6 x DBA/2). The inoculum level varies with the type of tumor: P388 leukemia is inoculated at 10^6 cells per mouse, L1210 leukemia at 10^5 or 10^6 cells per mouse, M5076 sarcoma at 5×10^6 cells per mouse. For implantation of the B16 melanoma lines and the colon carcinoma 26, s.c. tumors from donor mice are minced and homogenized in loose fitting teflon glass homogenizer to give a tumor brei. The inoculum levels are 0.5 ml of a 10 percent (w:v) brei of the B16 melanoma lines and 0.5 ml of a 5 percent (w:v) brei of colon carcinoma 26. After tumor inoculation, mice randomized to treatment groups comprised of 6-8 mice each. In each experiment, there are three groups of untreated control mice. Drugs are dissolved or suspended in appropriate aqueous vehicles and given by a variety of routes and schedules of administration over a range of dose levels. Animals are housed in shoebox cages and are monitored daily for mortality for 30 (L1210), 45 (P388) or 60 (B16, M5076, colon 26) days.

ip colon carcinoma 26 = experiment: ip-implanted colon carcinoma 26 in mice; format: in vivo, mouse; details: ip Colon 26, B/ip (Days 1, 5, 9 and 13)
From the text: as §6, §7

in vivo = details: mouse, ip
From the text: as §3, §4, §5

[5] = 2 hr exposure, read-out: IC50 2 Hr. Exposure
[6] = continuous exposure, read-out: IC50 Continuous Exposure

## CC[C@@]1(O)C(=O)OCc2c1cc1n(c2=O)Cc2cc3c(CN(C)C)c(O)ccc3nc2-1 [Compound No. 1S, (20 S) 9-Dimethylaminomethyl-10-hydroxycamptothecin Acetate Salt]
Sc M5076 sarcoma; mouse, in vivo
  TGI at three dose levels at or below a maximally tolerated dose: > 90
Sc M5076 sarcoma; mouse, in vivo, 3.2 mg/kg
  Tumor growth inhibition (TGI): 64%
Sc M5076 sarcoma; mouse, in vivo, 5.4 mg/kg
  Tumor growth inhibition (TGI): 92%
Sc M5076 sarcoma; mouse, in vivo, 9 mg/kg
  Tumor growth inhibition (TGI): 98%
Sc M5076 sarcoma; mouse, in vivo, 15 mg/kg
  Tumor growth inhibition (TGI): 100%
Sc M5076 sarcoma; mouse, in vivo, 25 mg/kg
  Tumor growth inhibition (TGI): toxic
Sc M5076 sarcoma; mouse, in vivo, sc
  Increase in Lifespan (ILS) or Inhibition of Tumor Growth (TGI): 100 % TGI
Sc M5076 sarcoma; sc M5076, 3.2 mg/kg/injection
  Mice without Palpable Tumors: 2/8
Sc M5076 sarcoma; sc M5076, 5.4 mg/kg/injection
  Mice without Palpable Tumors: 3/8
Sc M5076 sarcoma; sc M5076, 9 mg/kg/injection
  Mice without Palpable Tumors: 6/8
Sc M5076 sarcoma; sc M5076, 15 mg/kg/injection
  Mice without Palpable Tumors: 8/8
Sc M5076 sarcoma; sc M5076, ip Days 1, 5, 9 and 13
  prolonged lifespan: 31%
Aqueous solubility
  solubility in water / aqueous vehicles: water-soluble
[1]; mouse, in vivo, sc
  Increase in Lifespan (ILS) or Inhibition of Tumor Growth (TGI): 100 % TGI
[1]; sc B16/F10, B/ip (Days 1, 5, 9 and 13), 3.2 mg/kg/injection
  Tumor growth inhibition (TGI): 52%
[1]; sc B16/F10, B/ip (Days 1, 5, 9 and 13), 5.4 mg/kg/injection
  Tumor growth inhibition (TGI): 62%
[1]; sc B16/F10, B/ip (Days 1, 5, 9 and 13), 9 mg/kg/injection
  Tumor growth inhibition (TGI): 57%
[1]; sc B16/F10, B/ip (Days 1, 5, 9 and 13), 15 mg/kg/injection
  Tumor growth inhibition (TGI): 87%
[1]; sc B16/F10, B/ip (Days 1, 5, 9 and 13), 25 mg/kg/injection
  Tumor growth inhibition (TGI): 100%
[1]; sc B16/F10, B/ip, 25 mg/kg/injection
  Mice without Palpable Tumors: 7/8
[1]; sc B16/F10, F/iv (Days 1, 5 and 9), 3.2 mg/kg/injection
  Tumor growth inhibition (TGI): 22%
[1]; sc B16/F10, F/iv (Days 1, 5 and 9), 5.4 mg/kg/injection
  Tumor growth inhibition (TGI): 34%
[1]; sc B16/F10, F/iv (Days 1, 5 and 9), 9 mg/kg/injection
  Tumor growth inhibition (TGI): 60%
[1]; sc B16/F10, F/iv (Days 1, 5 and 9), 15 mg/kg/injection
  Tumor growth inhibition (TGI): 97%
[1]; sc B16/F10, F/iv (Days 1, 5 and 9), 25 mg/kg/injection
  Tumor growth inhibition (TGI): 97%
[1]; sc B16/F10, F/iv, 3.2 mg/kg/injection
  Mice without Palpable Tumors: 1/8
[1]; sc B16/F10, F/iv, 5.4 mg/kg/injection
  Mice without Palpable Tumors: 1/8
[1]; sc B16/F10, F/iv, 9 mg/kg/injection
  Mice without Palpable Tumors: 2/8
[1]; sc B16/F10, F/iv, 15 mg/kg/injection
  Mice without Palpable Tumors: 7/8
[1]; sc B16/F10, F/iv, 25 mg/kg/injection
  Mice without Palpable Tumors: 6/8
[1]; sc B16/F10, ip treatment at 25
  Increase in lifespan (ILS): 70%
[1]; sc B16/F10, iv on Days 1, 5 and 9
  tumor growth inhibition at two dose levels: 97%
[1]; sc B16/F10, iv treatment at the same dose level (25)
  ILS: 38%
[2]; [5]
  IC50: 3.9 µg/mL
[2]; [6]
  IC50: 0.017 µg/mL
[3]; [5]
  IC50: 1.2 µg/mL
[3]; [6]
  IC50: 0.052 µg/mL
Iv Lewis lung carcinoma; iv Lewis Lung Carcinoma, optimal doses and optimal schedules, Acetate Salt
  Increase in Lifespan (ILS) or Inhibition of Tumor Growth (TGI): Curative
Iv Lewis lung carcinoma; 3.2 mg/kg/injection
  Increase in lifespan (ILS): 16%
Iv Lewis lung carcinoma; 5.4 mg/kg/injection
  Increase in lifespan (ILS): 37%
Iv Lewis lung carcinoma; 15 mg/kg/injection
  Increase in lifespan (ILS): > 200%
  Long-Term Survivors: 7/7
Iv Lewis lung carcinoma; 25 mg/kg/injection
  Increase in lifespan (ILS): toxic
Iv Lewis lung carcinoma; 9 mg/kg/injection
  Long-Term Survivors: 1/7
[4]; mouse, in vivo
  TGI at the maximally tolerated dose: 74
[4]; mouse, in vivo, 1.5 mg/kg
  Tumor growth inhibition (TGI): 0%
[4]; mouse, in vivo, 3 mg/kg
  Tumor growth inhibition (TGI): 0%
[4]; mouse, in vivo, 6 mg/kg
  Tumor growth inhibition (TGI): 21%
[4]; mouse, in vivo, 12 mg/kg
  Tumor growth inhibition (TGI): 0%
[4]; mouse, in vivo, 24 mg/kg
  Mice without Palpable Tumors: 1/8
[4]; mouse, in vivo, sc
  Increase in Lifespan (ILS) or Inhibition of Tumor Growth (TGI): 85 % TGI
  inhibition of tumor growth at the maximally tolerated dose: > 70
[4]; sc Madison lung, C/iv (every 3 hours x4 on Days 1, 5 and 9), 0.19 mg/kg/injection
  Tumor growth inhibition (TGI): 0%
[4]; sc Madison lung, C/iv (every 3 hours x4 on Days 1, 5 and 9), 0.38 mg/kg/injection
  Tumor growth inhibition (TGI): 41%
[4]; sc Madison lung, C/iv (every 3 hours x4 on Days 1, 5 and 9), 0.75 mg/kg/injection
  Tumor growth inhibition (TGI): 63%
[4]; sc Madison lung, C/iv (every 3 hours x4 on Days 1, 5 and 9), 1.5 mg/kg/injection
  Tumor growth inhibition (TGI): 85%
[4]; sc Madison lung, C/iv (every 3 hours x4 on Days 1, 5 and 9), 3 mg/kg/injection
  Tumor growth inhibition (TGI): toxic
[4]; sc Madison lung, C/iv, 0.75 mg/kg/injection
  Mice without Palpable Tumors: 1/8
[4]; sc Madison lung, C/iv, 1.5 mg/kg/injection
  Mice without Palpable Tumors: 3/8
Ip B16 melanoma
  ILS: 130
Ip B16 melanoma; ip
  Increase in Lifespan (ILS) or Inhibition of Tumor Growth (TGI): 152 % ILS
Ip B16 melanoma; ip, 3.2 mg/kg
  Increase in lifespan (ILS): 43%
Ip B16 melanoma; ip, 5.4 mg/kg
  Increase in lifespan (ILS): 52%
Ip B16 melanoma; ip, 25 mg/kg
  Increase in lifespan (ILS): toxic
Ip colon carcinoma 26; 5 mg/kg/injection
  Increase in lifespan (ILS): 5%
Ip colon carcinoma 26; 10 mg/kg/injection
  Increase in lifespan (ILS): 25%
Ip colon carcinoma 26; 20 mg/kg/injection
  Increase in lifespan (ILS): toxic
Ip colon carcinoma 26; 40 mg/kg/injection
  Increase in lifespan (ILS): toxic
In vivo
  MTD: 15 mg/kg
